ChEMBL document CHEMBL3885861, “Open TG-GATES”

Species on record: Rattus norvegicus
Test: Open TG-GATES - Regimen: Single
Format: toxicity, organism-based, Sprague-Dawley
Set-up: regimen Single, gender Male, age 6 weeks
Settings: in vivo, po, 0 mg/kg, route gavage, dose level Control; for APTT / Bas / Eos / Fbg / Hb / Ht / Lym / MCH / MCHC / MCV / Mono / Neu / PT / Plat / RBC / Ret / WBC: tissue Blood; for KIDNEY_L / KIDNEY_R / KIDNEY_TOTAL: tissue Kidney; for LIVER: tissue Liver; for A/G / ALP / ALT / AST / BUN / CRE / Ca / Cl / DBIL / GLC / IP / K / LDH / Na / PL / RALB / TBIL / TC / TG / TP / gamma-GTP: tissue Plasma

## OCCOCCN1CCN(C(c2ccccc2)c2ccc(Cl)cc2)CC1 (configuration not stated) [HYDROXYZINE]
3 h
  TERMINAL_BW: 191.8 g
  APTT: 16.4 s
  Bas: 0%
  Eos: 0.8%
  Fbg: 287 mg/dL
  Hb: 13.2 g/dL
  Ht: 41%
  Lym: 78%
  MCH: 21.5 pg
  MCHC: 32.3%
  MCV: 66.6 fL
  Mono: 3%
  Neu: 17.4%
  PT: 15.4 s
  Plat: 120.7 x10_4/uL
  RBC: 616 x10_4/ul
  Ret: 8.7%
  WBC: 71.8 x10_2/uL
  KIDNEY_L: 0.9 g
  KIDNEY_R: 0.9 g
  KIDNEY_TOTAL: 1.7 g
  LIVER: 8.6 g
  A/G: 0.8
  ALP: 1501.4 IU/L
  ALT: 41 IU/L
  AST: 73 IU/L
  BUN: 9 mg/dL
  CRE: 0.2 mg/dL
  Ca: 10.9 mg/dL
  Cl: 106 meq/L
  DBIL: 0.012 mg/dL
  GLC: 176.8 mg/dL
  IP: 9.2 mg/dL
  K: 4.2 meq/L
  LDH: 61.8 IU/L
  Na: 141.8 meq/L
  PL: 138.6 mg/dL
  RALB: 2.5 g/dL
  TBIL: 0.056 mg/dL
  TC: 75.4 mg/dL
  TG: 68.8 mg/dL
  TP: 5.4 g/dL
  gamma-GTP: 1 IU/L
6 h
  TERMINAL_BW: 194.9 g
  APTT: 16.3 s
  Bas: 0%
  Eos: 0.4%
  Fbg: 298.6 mg/dL
  Hb: 13.1 g/dL
  Ht: 40.8%
  Lym: 76.2%
  MCH: 21.7 pg
  MCHC: 32.1%
  MCV: 67.5 fL
  Mono: 2.4%
  Neu: 20.4%
  PT: 15.3 s
  Plat: 116.6 x10_4/uL
  RBC: 604 x10_4/ul
  Ret: 9%
  WBC: 60.3 x10_2/uL
  KIDNEY_L: 0.9 g
  KIDNEY_R: 0.9 g
  KIDNEY_TOTAL: 1.8 g
  LIVER: 8.5 g
  A/G: 0.9
  ALP: 1502.2 IU/L
  ALT: 36.4 IU/L
  AST: 68.8 IU/L
  BUN: 9.2 mg/dL
  CRE: 0.2 mg/dL
  Ca: 10.9 mg/dL
  Cl: 105.2 meq/L
  DBIL: 0.012 mg/dL
  GLC: 183.6 mg/dL
  IP: 9.9 mg/dL
  K: 4.2 meq/L
  LDH: 56.2 IU/L
  Na: 141.6 meq/L
  PL: 147.6 mg/dL
  RALB: 2.5 g/dL
  TBIL: 0.058 mg/dL
  TC: 81.4 mg/dL
  TG: 52.6 mg/dL
  TP: 5.3 g/dL
  gamma-GTP: 0.8 IU/L
9 h
  TERMINAL_BW: 191 g
  APTT: 16.5 s
  Bas: 0%
  Eos: 0.8%
  Fbg: 260.4 mg/dL
  Hb: 12.9 g/dL
  Ht: 39.9%
  Lym: 73.4%
  MCH: 20.5 pg
  MCHC: 32.4%
  MCV: 63.5 fL
  Mono: 2.6%
  Neu: 22.4%
  PT: 15.2 s
  Plat: 110.7 x10_4/uL
  RBC: 631.2 x10_4/ul
  Ret: 8.2%
  WBC: 82.7 x10_2/uL
  KIDNEY_L: 0.9 g
  KIDNEY_R: 0.9 g
  KIDNEY_TOTAL: 1.8 g
  LIVER: 7.9 g
  A/G: 0.9
  ALP: 1265.6 IU/L
  ALT: 38 IU/L
  AST: 75 IU/L
  BUN: 9.4 mg/dL
  CRE: 0.1 mg/dL
  Ca: 10.6 mg/dL
  Cl: 105.4 meq/L
  DBIL: 0.012 mg/dL
  GLC: 176.2 mg/dL
  IP: 10.1 mg/dL
  K: 4.2 meq/L
  LDH: 55.4 IU/L
  Na: 142 meq/L
  PL: 129.4 mg/dL
  RALB: 2.5 g/dL
  TBIL: 0.068 mg/dL
  TC: 76.8 mg/dL
  TG: 21 mg/dL
  TP: 5.4 g/dL
  gamma-GTP: 1 IU/L
24 h
  TERMINAL_BW: 204.1 g
  APTT: 15.6 s
  Bas: 0.2%
  Eos: 0.8%
  Fbg: 275.8 mg/dL
  Hb: 13.1 g/dL
  Ht: 40.4%
  Lym: 80.2%
  MCH: 21.6 pg
  MCHC: 32.6%
  MCV: 66.3 fL
  Mono: 2.6%
  Neu: 15.8%
  PT: 16 s
  Plat: 114.8 x10_4/uL
  RBC: 609.2 x10_4/ul
  Ret: 7.1%
  WBC: 63.9 x10_2/uL
  KIDNEY_L: 0.9 g
  KIDNEY_R: 0.9 g
  KIDNEY_TOTAL: 1.8 g
  LIVER: 9.3 g
  A/G: 0.9
  ALP: 1738.8 IU/L
  ALT: 43.4 IU/L
  AST: 71 IU/L
  BUN: 14.8 mg/dL
  CRE: 0.1 mg/dL
  Ca: 11.2 mg/dL
  Cl: 106.6 meq/L
  DBIL: 0.014 mg/dL
  GLC: 176.8 mg/dL
  IP: 7.6 mg/dL
  K: 4.5 meq/L
  LDH: 64.4 IU/L
  Na: 141.4 meq/L
  PL: 147.8 mg/dL
  RALB: 2.6 g/dL
  TBIL: 0.056 mg/dL
  TC: 75.2 mg/dL
  TG: 75.4 mg/dL
  TP: 5.7 g/dL
  gamma-GTP: 0.8 IU/L
